From US10723741B1, “DNA polymerase IIIC inhibitors and use thereof” (Acurx Pharmaceuticals, LLC, priority 2018, dated 2020)
Values after ≈ are worked out from the molar mass of the structure shown.

Assays:
Format in all cases: cell-based
[1] = tested on: Staphylococcus aureus ATCC 29213 (MSSA); assay: Broth microdilution MIC, S. aureus ATCC 29213 (MSSA); conditions: broth microdilution, 37° C., 20 hours, read-out: MIC S. aureus ATCC 29213 (MSSA)
How it was run: (§1)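 Two-fold dilutions from 64 to 0.0625 μg/ml final, 1% DMSO, were inoculated at ~5.0×10^5 cfu/ml in the strain's test medium and kept 20 h at 37 °C in ambient atmosphere. Colonies were grown on MHA, with S. pneumoniae on blood agar under 5% CO2.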

[2] = tested on: Escherichia coli ATCC 25922; assay: Broth microdilution MIC, E. coli ATCC 25922 (MHIIB w & w/o 4 mM EDTA); conditions: broth microdilution, 37° C., 20 hours; for MIC: Escherichia coli, ATCC25922, without EDTA, read-out: MIC E. coli ATCC 25922; for MIC E. coli ATCC 25922 + 4 mM EDTA: with 4 mM EDTA
How it was run: as §1

[3] = tested on: Bacillus subtilis ATCC 6633; assay: Broth microdilution MIC, B. subtilis ATCC 6633; conditions: ATCC6633, broth microdilution, 37° C., 20 hours, read-out: MIC B. subtilis ATCC 6633
How it was run: as §1

[4] = tested on: Streptococcus pneumoniae ATCC 49619; assay: Broth microdilution MIC, S. pneumoniae ATCC 49619; conditions: ATCC49619, broth microdilution, 37° C., 20 hours, read-out: MIC S. pneumoniae ATCC 49619
How it was run: as §1

[5] = tested on: Staphylococcus aureus NRS384 (MRSA); assay: Broth microdilution MIC, S. aureus NRS384 (MRSA); set-up: MIC NRS 384 (MRSA): unit not given here; conditions: broth microdilution, 37° C., 20 hours; for MIC: Staphylococcus aureus, read-out: MIC NRS 384 (MRSA)
How it was run: as §1

[6] = tested on: Enterococcus faecalis ATCC 29212; assay: Broth microdilution MIC, E. faecalis ATCC 29212; conditions: ATCC29212, broth microdilution, 37° C., 20 hours, read-out: MIC E. faecalis ATCC 29212
How it was run: as §1

[7] = tested on: Enterococcus faecium ATCC 700221 (VRE); assay: Broth microdilution MIC, E. faecium ATCC 700221 (VRE); set-up: MIC E. faecium ATCC 700221 (VRE): unit: ug/mL; conditions: broth microdilution, 37° C., 20 hours; for MIC: Enterococcus faecium, read-out: MIC E. faecium ATCC 700221 (VRE)
How it was run: as §1

| Compound | MIC [1] [µg/mL] | MIC [2] [µg/mL] | MIC E. coli ATCC 25922 + 4 mM EDTA [2] [µg/mL] | MIC [3] [µg/mL] | MIC [4] [µg/mL] | MIC NRS 384 (MRSA) [5] | MIC [6] [µg/mL] | MIC E. faecium ATCC 700221 (VRE) [7] | MIC [5] [µg/mL] | MIC [7] [µg/mL] |
| --- | --- | --- | --- | --- | --- | --- | --- | --- | --- | --- |
| Cl.O=c1[nH]c(NCc2ccc(Cl)c(Cl)c2)nc2cnn(Cc3cccnc3)c12 [Compound 113, 5-[(3,4-Dichlorophenyl)methylamino]-1-(3-pyridylmethyl)-6H-pyrazolo[4,3-d]pyrimidin-7-one] | 4 | > 64 | >64 | 1 | 8 | 4/4 | 8 | 2/2 |  |  |
| O=c1[nH]c(NCc2ccc(Cl)c(Cl)c2)nc2cnn(Cc3ncccn3)c12 [Compound 114, 5-((3,4-Dichlorobenzyl)amino)-1-(pyrimidin-2-ylmethyl)-1H-pyrazolo[4,3-d]pyrimidin-7(6H)-one] | 8 (≈ 19.9 µM) | > 64 | 32 | 2 (≈ 4.97 µM) | 4 (≈ 9.94 µM) | 4/4 | 16 (≈ 39.8 µM) | 4/4 |  |  |
| O=c1[nH]c(NCc2ccc(Cl)c(Cl)c2)nc2cnn(CCOCCOCCO)c12 [Compound 115, 5-((3,4-Dichlorobenzyl)amino)-1-(2-(2-(2-hydroxyethoxy)ethoxy)ethyl)-1H-pyrazolo[4,3-d]pyrimidin-7(6H)-one] | 32 (≈ 72.3 µM) | > 64 | >64 | 8 (≈ 18.1 µM) | 16 (≈ 36.2 µM) |  | 32 (≈ 72.3 µM) |  | 32 (≈ 72.3 µM) | 8 (≈ 18.1 µM) |
| O=c1[nH]c(NCc2ccc(Cl)c(Cl)c2)nc2cnn(CCOCCOCCOCCO)c12 [Compound 116, 5-((3,4-Dichlorobenzyl)amino)-1-(2-(2-(2-(2-hydroxyethoxy)ethoxy)ethoxy)ethyl)-1H-pyrazolo[4,3-d]pyrimidin-7(6H)-one] | 64 (≈ 132 µM) | > 64 | >64 | 8 (≈ 16.4 µM) | 8 (≈ 16.4 µM) |  | 16 (≈ 32.9 µM) |  | 32 (≈ 65.8 µM) | 8 (≈ 16.4 µM) |
| O=c1[nH]c(NCc2ccc(Cl)c(Cl)c2)nc2cnn(CCc3ncccn3)c12 [Compound 117, 5-((3,4-Dichlorobenzyl)amino)-1-(2-(pyrimidin-2-yl)ethyl)-1H-pyrazolo[4,3-d]pyrimidin-7(6H)-one] | 8 (≈ 19.2 µM) | > 64 | >64 | 2 (≈ 4.8 µM) | 4 (≈ 9.61 µM) |  | 8 (≈ 19.2 µM) |  | 8 (≈ 19.2 µM) | 4 (≈ 9.61 µM) |
| O=c1[nH]c(NCc2ccc(Cl)c(Cl)c2)nc2cnn(CC3COC3)c12 [Compound 118, 5-((3,4-Dichlorobenzyl)amino)-1-(oxetan-3-ylmethyl)-1H-pyrazolo[4,3-d]pyrimidin-7(6H)-one] | 2 (≈ 5.26 µM) | > 64 | >64 | 0.5 (≈ 1.31 µM) | 2 (≈ 5.26 µM) |  | 2 (≈ 5.26 µM) |  | 2 (≈ 5.26 µM) | 1 (≈ 2.63 µM) |
| O=c1[nH]c(NCc2ccc(Cl)c(Cl)c2)nc2cnn(C3CCOC3)c12 (centres unmarked) [Compound 119, 5-((3,4-Dichlorobenzyl)amino)-1-(tetrahydrofuran-3-yl)-1H-pyrazolo[4,3-d]pyrimidin-7(6H)-one] | 2 (≈ 5.26 µM) | > 64 | >64 | 1 (≈ 2.63 µM) | 4 (≈ 10.5 µM) |  | 4 (≈ 10.5 µM) |  | 4 (≈ 10.5 µM) | 2 (≈ 5.26 µM) |
| O=c1[nH]c(NCc2ccc(Cl)c(Cl)c2)nc2cnn(CC3CCOC3)c12 (centres unmarked) [Compound 120, 5-((3,4-Dichlorobenzyl)amino)-1-((tetrahydrofuran-3-yl)methyl)-1H-pyrazolo[4,3-d]pyrimidin-7(6H)-one] | 2 (≈ 5.07 µM) | > 64 | >64 | 1 (≈ 2.54 µM) | 4 (≈ 10.1 µM) |  | 4 (≈ 10.1 µM) |  | 2 (≈ 5.07 µM) | 2 (≈ 5.07 µM) |
| O=c1[nH]c(NCc2ccc(Cl)c(Cl)c2)nc2cnn(C3CCOCC3)c12 [Compound 121, 5-((3,4-Dichlorobenzyl)amino)-1-(tetrahydro-2H-pyran-4-yl)-1H-pyrazolo[4,3-d]pyrimidin-7(6H)-one] | 4 (≈ 10.1 µM) | > 64 | >64 | 0.5 (≈ 1.27 µM) | 4 (≈ 10.1 µM) |  | 4 (≈ 10.1 µM) |  | 2 (≈ 5.07 µM) | 2 (≈ 5.07 µM) |
| O=c1[nH]c(NCc2ccc(Cl)c(Cl)c2)nc2cnn(CC3CCO3)c12 (centres unmarked) [Compound 122, 5-((3,4-Dichlorobenzyl)amino)-1-(oxetan-2-ylmethyl)-1H-pyrazolo[4,3-d]pyrimidin-7(6H)-one] | 2 (≈ 5.26 µM) | > 64 | >64 | 1 (≈ 2.63 µM) | 4 (≈ 10.5 µM) |  | 4 (≈ 10.5 µM) |  | 2 (≈ 5.26 µM) | 2 (≈ 5.26 µM) |
| O=c1[nH]c(NCc2ccc(Cl)c(Cl)c2)nc2cnn(CCCO)c12 [Compound 123, 5-((3,4-Dichlorobenzyl)amino)-1-(3-hydroxypropyl)-1H-pyrazolo[4,3-d]pyrimidin-7(6H)-one] | 2 (≈ 5.43 µM) | > 64 | >64 | 0.5 (≈ 1.36 µM) | 2 (≈ 5.43 µM) |  | 4 (≈ 10.9 µM) |  | 2 (≈ 5.43 µM) | 1 (≈ 2.72 µM) |
| Cl.O=c1[nH]c(NCc2ccc(Cl)c(Cl)c2)nc2cnn(CCc3cnccn3)c12 [Compound 124, 5-((3,4-Dichlorobenzyl)amino)-1-(2-(pyrazin-2-yl)ethyl)-1H-pyrazolo[4,3-d]pyrimidin-7(6H)-one hydrochloride] | 4 | > 64 | >64 | 1 | 8 |  | 4 |  | 2 | 2 |
| O=c1[nH]c(NCc2ccc(F)c(F)c2)nc2cnn(CC3CCO3)c12 (centres unmarked) [Compound 125, 5-((3,4-Difluorobenzyl)amino)-1-(oxetan-2-ylmethyl)-1H-pyrazolo[4,3-d]pyrimidin-7(6H)-one] | 32 (≈ 92.1 µM) | > 64 | >64 | 32 (≈ 92.1 µM) | 8 (≈ 23 µM) |  | 32 (≈ 92.1 µM) |  | 32 (≈ 92.1 µM) | 32 (≈ 92.1 µM) |
| O=c1[nH]c(NCc2ccc(Cl)c(Cl)c2)nc2cnn(Cc3ccccc3)c12 [Compound 127, 1-Benzyl-5-((3,4-dichlorobenzyl)amino)-1H-pyrazolo[4,3-d]pyrimidin-7(6H)-one] | > 64 | > 64 | >64 | 1 (≈ 2.5 µM) | > 64 |  | > 64 |  | > 64 | 32 (≈ 79.9 µM) |
| COCCn1cc2nc(NCc3ccc(Cl)c(Cl)c3)[nH]c(=O)c2n1 [Compound 128, 5-((3,4-Dichlorobenzyl)amino)-2-(2-methoxyethyl)-2H-pyrazolo[4,3-d]pyrimidin-7(6H)-one] | 32 (≈ 86.9 µM) | > 64 | >64 | 16 (≈ 43.5 µM) | 16 (≈ 43.5 µM) |  | 32 (≈ 86.9 µM) |  | 32 (≈ 86.9 µM) | 32 (≈ 86.9 µM) |
| O=c1[nH]c(NCc2ccc(Cl)c(Cl)c2)nc2cn(Cc3ccccc3)nc12 [Compound 129, 2-Benzyl-5-((3,4-dichlorobenzyl)amino)-2H-pyrazolo[4,3-d]pyrimidin-7(6H)-one] | > 64 | > 64 | >64 | > 64 | > 64 |  | > 64 |  | > 64 | > 64 |
| CC(C)n1ncc2nc(NCc3ccc(Cl)c(Cl)c3)[nH]c(=O)c21 [Compound 130, 5-((3,4-Dichlorobenzyl)amino)-1-isopropyl-1H-pyrazolo[4,3-d]pyrimidin-7(6H)-one] | 2 (≈ 5.68 µM) | > 64 | 16 | 1 (≈ 2.84 µM) | 4 (≈ 11.4 µM) |  | 4 (≈ 11.4 µM) |  | 2 (≈ 5.68 µM) | 2 (≈ 5.68 µM) |
| COCCCCCn1ncc2nc(NCc3ccc(Cl)c(Cl)c3)[nH]c(=O)c21 [Compound 131, 5-((3,4-Dichlorobenzyl)amino)-1-(5-methoxypentyl)-1H-pyrazolo[4,3-d]pyrimidin-7(6H)-one] | 2 (≈ 4.87 µM) | > 64 | >64 | 1 (≈ 2.44 µM) | 4 (≈ 9.75 µM) |  | 4 (≈ 9.75 µM) |  | 2 (≈ 4.87 µM) | 2 (≈ 4.87 µM) |
| CC(C)n1cc2nc(NCc3ccc(Cl)c(Cl)c3)[nH]c(=O)c2n1 [Compound 132, 5-((3,4-Dichlorobenzyl)amino)-2-isopropyl-2H-pyrazolo[4,3-d]pyrimidin-7(6H)-one] | > 64 | > 64 | >64 | 8 (≈ 22.7 µM) | 16 (≈ 45.4 µM) |  | > 64 |  | > 64 | 16 (≈ 45.4 µM) |
